Holding throughout (format): in vivo, Swiss-Webster mice
Assay [1] has as its system total white blood cell (WBC). Put plainly: Total white blood cells by complete blood count on day 8, dosing day 1, 3, 5. The following applies: Mus musculus, 192 h, mice, oral gavage, measured on day 8, read-out: Total WBC % Increase Over Control; for change in vivo at 60 mg/kg: 60 mg/kg on day 1, day 3 and day 5; for change in vivo at 100 mg/kg: 100 mg/kg on day 1, day 3 and day 5; for change in vivo at 200 mg/kg: 200 mg/kg on day 1, day 3 and day 5. The method, then:
(§1) To examine the effect of compounds and methods of the present invention on increasing white blood cells, the following studies were performed. In one series of experiments, male Swiss-Webster mice were administered various compounds of the present invention via oral gavage using a ball-tipped gavage needle. […] Animals were dosed once daily for 3 or 4 days. Six hours after the final dosing, 200 μl blood samples were collected and total white blood cell, neutrophil, and lymphocyte levels were measured by complete blood count (CBC) using a CellDyn cell analyzer (Abbott Laboratories).
(§2) In another series of experiments, male Swiss-Webster mice were administered various compounds (see Table 7 and Table 8) of the present invention via oral gavage using a ball-tipped gavage needle. […] Total WBC, neutrophil, lymphocyte, and monocyte levels were measured in mice as described above on day 8 following administration of compound on day 1, day 3, and day 5.

Assay [2] concerns neutrophils. Put plainly: Neutrophils by complete blood count on day 8, dosing day 1, 3, 5. The following applies: mice, oral gavage, measured on day 8; for change in vivo at 6 mg/kg: Mus musculus, Neutrophil, 192 h, read-out: Neutrophils % Increase Over Control.
For another assay, the system named is lymphocytes. Put plainly: Lymphocytes by complete blood count on day 8, dosing day 1, 3, 5. The following applies: mice, oral gavage, measured on day 8; for change in vivo at 60 mg/kg / change in vivo at 100 mg/kg / change in vivo at 200 mg/kg / change in vivo at 6 mg/kg: Mus musculus, Lymphocyte, 192 h, read-out: Lymphocytes % Increase Over Control. Here is the method:
as §1, §2

In assay [3] the test system is total white blood cell (WBC). Put plainly: Total white blood cells by complete blood count on day 8, dosing day 1, 3, 5. The following applies: mice, oral gavage, measured on day 8; for change in vivo at 6 mg/kg: Mus musculus, 192 h, read-out: Total WBC % Increase Over Control.
A further assay relates to monocytes. Put plainly: Monocytes by complete blood count on day 8, dosing day 1, 3, 5. The following applies: mice, oral gavage, measured on day 8.
Assay [4] deals with neutrophils. Put plainly: Neutrophils by complete blood count on day 8, dosing day 1, 3, 5. The following applies: Mus musculus, Neutrophil, 192 h, mice, oral gavage, measured on day 8, read-out: Neutrophils % Increase Over Control; for change in vivo at 100 mg/kg: 100 mg/kg on day 1, day 3 and day 5; for change in vivo at 200 mg/kg: 200 mg/kg on day 1, day 3 and day 5. The method, then:
as §1, §2

Setting [5] is: 60 mg/kg on day 1, day 3 and day 5.
[6] abbreviates: 100 mg/kg on day 1, day 3 and day 5.
Where [7] appears, read: Mus musculus, Monocyte, 192 h, 100 mg/kg on day 1, day 3 and day 5, read-out: Monocytes % Increase Over Control.
Setting [8] is: 200 mg/kg on day 1, day 3 and day 5.
The mark [9] stands for this setting: Mus musculus, Monocyte, 192 h, 200 mg/kg on day 1, day 3 and day 5, read-out: Monocytes % Increase Over Control.
[10] abbreviates: 6 mg/kg on day 1, day 3 and day 5.

As to `COc1cccc(Cn2ccc3c(O)c(C(=O)NCC(=O)O)nc(C#N)c32)c1` [Compound M, {[7-Cyano-4-hydroxy-1-(3-methoxy-benzyl)-1H-pyrrolo[2,3-c]pyridine-5-carbonyl]-amino}-acetic acid], the change in vivo at 60 mg/kg in assay [1] was found to be 149%; in the assay on lymphocytes (setting [5]), 126%; in the assay on monocytes (Mus musculus, Monocyte, 192 h, 60 mg/kg on day 1, day 3 and day 5, read-out: Monocytes % Increase Over Control), 100%. In addition, the Neutrophils in the assay on neutrophils [2] (setting [5]) is listed as 0.6 10^3 cells/μl. Besides, the Lymphocytes in the assay on lymphocytes (setting [5]) is on record as 7.5 10^3 cells/μl. Besides, in assay [3] (setting [5]), the “Total WBC” value is 9.7 10^3 cells/μl. Also, the Monocytes with monocytes (setting [5]) is 0.1 10^3 cells/μl.

Regarding `N#Cc1nc(C(=O)NCC(=O)O)c(O)c2c(Cl)cn(Cc3ccccc3C(F)(F)F)c12` [Compound AT, {[3-Chloro-7-cyano-4-hydroxy-1-(2-trifluoromethyl-benzyl)-1H-pyrrolo[2,3-c]pyridine-5-carbonyl]-amino}-acetic acid], the change in vivo at 100 mg/kg came out at 81% in assay [1], 94% with lymphocytes (setting [6]), 94% in the assay on monocytes (setting [7]) and 27% in the assay with neutrophils [4]. For the same compound, in the assay with neutrophils [2] (setting [6]), the Neutrophils is 0.8 10^3 cells/μl. Moreover, the Lymphocytes with lymphocytes (setting [6]) is reported as 8.5 10^3 cells/μl. Further, the “Total WBC” value in assay [3] (setting [6]) is 9.4 10^3 cells/μl. Moreover, the Monocytes with monocytes (setting [6]) is given as 0.2 10^3 cells/μl.

As for `N#Cc1nc(C(=O)NCC(=O)O)c(O)c2c(Oc3ccc(Cl)cc3)cccc12` [Compound K, {[5-(4-Chloro-phenoxy)-1-cyano-4-hydroxy-isoquinoline-3-carbonyl]-amino}-acetic acid], the change in vivo at 200 mg/kg was found to be 491% in assay [1], 562% in the assay with lymphocytes (setting [8]), 233% in the assay on monocytes (setting [9]) and 34% in the assay on neutrophils [4]. Moreover, in the assay on neutrophils [2] (setting [8]), the Neutrophils is on record as 0.8 10^3 cells/μl. In the assay on lymphocytes (setting [8]), the Lymphocytes was 31.8 10^3 cells/μl. The “Total WBC” value in assay [3] (setting [8]) was 33.0 10^3 cells/μl. For the same compound, the Monocytes in the assay on monocytes (setting [8]) is on record as 0.4 10^3 cells/μl.

As for `Cc1cc(Cl)cc(C)c1Oc1ccc2c(C#N)nc(C(=O)NCC(=O)O)c(O)c2c1` [Compound J, {[6-(4-Chloro-2,6-dimethyl-phenoxy)-1-cyano-4-hydroxy-isoquinoline-3-carbonyl]-amino}-acetic acid], the change in vivo at 100 mg/kg amounted to 208% in assay [1], 236% in the assay on lymphocytes (setting [6]), 300% in the assay with monocytes (setting [7]) and 8% in the assay with neutrophils [4]. Besides, the Neutrophils in the assay on neutrophils [2] (setting [6]) is 0.9 10^3 cells/μl. For the same compound, the Lymphocytes with lymphocytes (setting [6]) was 21.7 10^3 cells/μl. Further, in assay [3] (setting [6]), the “Total WBC” value is 23.0 10^3 cells/μl. In addition, the Monocytes in the assay with monocytes (setting [6]) is reported as 0.3 10^3 cells/μl.

Turning to `O=C(O)CNC(=O)c1ncc2cc(Br)ccc2c1O` [Compound T, [(7-Bromo-4-hydroxy-isoquinoline-3-carbonyl)-amino]-acetic acid], the change in vivo at 60 mg/kg in assay [1] worked out at 17%; in the assay with lymphocytes (setting [5]) it was 13%; in the assay with neutrophils [4] (setting [5]), 40%. Moreover, in the assay with neutrophils [2] (setting [5]), the Neutrophils was 1.0 10^3 cells/μl. In addition, the Lymphocytes with lymphocytes (setting [5]) was 6.2 10^3 cells/μl. Also, the “Total WBC” value in assay [3] (setting [5]) is recorded as 7.3 10^3 cells/μl. Also, the Monocytes in the assay on monocytes (setting [5]) is on record as 0.0 10^3 cells/μl.

For the compound `N#Cc1nc(C(=O)NCC(=O)O)c(O)c2c(Oc3ccc(F)cc3)cccc12` [Compound G, {[1-Cyano-5-(4-fluoro-phenoxy)-4-hydroxy-isoquinoline-3-carbonyl]-amino}-acetic acid], the change in vivo at 200 mg/kg stood at 138% in assay [1], 148% in the assay on lymphocytes (setting [8]), 317% in the assay on monocytes (setting [9]) and 48% with neutrophils [4]. The Neutrophils in the assay with neutrophils [2] (setting [8]) was 0.8 10^3 cells/μl. The Lymphocytes in the assay with lymphocytes (setting [8]) is on record as 13.2 10^3 cells/μl. In addition, in assay [3] (setting [8]), the “Total WBC” value is listed as 14.3 10^3 cells/μl. In addition, in the assay on monocytes (setting [8]), the Monocytes is listed as 0.2 10^3 cells/μl.

Consider `O=C(O)CNC(=O)c1ncc2cc(Oc3ccc(F)c(F)c3)ccc2c1O` [Compound V, {[7-(3,4-Difluoro-phenoxy)-4-hydroxy-isoquinoline-3-carbonyl]-amino}-acetic acid], for which the results for the change in vivo at 100 mg/kg (in assay [1]; with lymphocytes (setting [6]); in the assay with neutrophils [4]) were 145%, 146% and 132%, respectively. For the same compound, the Neutrophils with neutrophils [2] (setting [6]) was 0.8 10^3 cells/μl. Moreover, in the assay on lymphocytes (setting [6]), the Lymphocytes was 6.1 10^3 cells/μl. Further, in assay [3] (setting [6]), the “Total WBC” value is recorded as 7.1 10^3 cells/μl. For the same compound, in the assay with monocytes (setting [6]), the Monocytes is given as 0.1 10^3 cells/μl.

Take `Cc1nc(C(=O)NCC(=O)O)c(O)c2ccc(Cl)cc12` [Compound Y, [(7-Chloro-4-hydroxy-1-methyl-isoquinoline-3-carbonyl)-amino]-acetic acid]: the change in vivo at 200 mg/kg in assay [1] worked out at 34%; in the assay with lymphocytes (setting [8]), 17%; in the assay on monocytes (setting [9]) it was 700%; in the assay on neutrophils [4], 200%. For the same compound, the Neutrophils in the assay on neutrophils [2] (setting [8]) is 1.9 10^3 cells/μl. The Lymphocytes in the assay on lymphocytes (setting [8]) was 7.6 10^3 cells/μl. Moreover, the “Total WBC” value in assay [3] (setting [8]) is listed as 9.8 10^3 cells/μl. In addition, the Monocytes with monocytes (setting [8]) is 0.2 10^3 cells/μl.

For the compound `N#Cc1nc(C(=O)NCC(=O)O)c(O)c2cc(Oc3ccc(F)cc3)ccc12` [Compound D, {[1-Cyano-6-(4-fluoro-phenoxy)-4-hydroxy-isoquinoline-3-carbonyl]-amino}-acetic acid], the change in vivo at 100 mg/kg in assay [1] worked out at 152%; in the assay on lymphocytes (setting [6]), 140%; in the assay with neutrophils [4], 242%. Further, the Neutrophils in the assay with neutrophils [2] (setting [6]) is on record as 1.3 10^3 cells/μl. Further, the Lymphocytes with lymphocytes (setting [6]) is 9.3 10^3 cells/μl. In addition, the “Total WBC” value in assay [3] (setting [6]) was 10.8 10^3 cells/μl. In the assay on monocytes (setting [6]), the Monocytes is recorded as 0.2 10^3 cells/μl.

On to `N#Cc1nc(C(=O)NCC(=O)O)c(O)c2c(Cl)c(Cl)n(Cc3ccccc3)c12` [Compound Q, [(1-Benzyl-2,3-dichloro-7-cyano-4-hydroxy-1H-pyrrolo[2,3-c]pyridine-5-carbonyl)-amino]-acetic acid], for which the change in vivo at 200 mg/kg was 475% in assay [1], 522% with lymphocytes (setting [8]), 14% in the assay with monocytes (setting [9]) and 233% in the assay with neutrophils [4]. For the same compound, the Neutrophils in the assay with neutrophils [2] (setting [8]) was 2.5 10^3 cells/μl. For the same compound, the Lymphocytes in the assay on lymphocytes (setting [8]) is given as 36.0 10^3 cells/μl. In addition, the “Total WBC” value in assay [3] (setting [8]) is reported as 38.7 10^3 cells/μl. In the assay with monocytes (setting [8]), the Monocytes is given as 0.1 10^3 cells/μl.

On to `O=C(O)CNC(=O)c1ncc2c(Oc3ccccc3)cccc2c1O` [Compound AB, [(4-Hydroxy-8-phenoxy-isoquinoline-3-carbonyl)-amino]-acetic acid], for which, in the assay with neutrophils [2] (setting [10]), the change in vivo at 6 mg/kg worked out at 398% and the Neutrophils is reported as 2.8 10^3 cells/μl. For the same compound, in the assay on lymphocytes (setting [10]), the change in vivo at 6 mg/kg was found to be 42% and the Lymphocytes is recorded as 6.8 10^3 cells/μl. In assay [3] (setting [10]), the change in vivo at 6 mg/kg came out at 78% and the “Total WBC” value is 9.8 10^3 cells/μl. The Monocytes with monocytes (setting [10]) is listed as 0.2 10^3 cells/μl.

For the compound `Cc1nc(C(=O)NCC(=O)O)c(O)c2cccc(Oc3ccc(F)cc3)c12` [Compound AE, {[8-(4-Fluoro-phenoxy)-4-hydroxy-1-methyl-isoquinoline-3-carbonyl]-amino}-acetic acid], in the assay with neutrophils [2] (setting [10]), the change in vivo at 6 mg/kg is 175% and the Neutrophils is listed as 1.1 10^3 cells/μl. Moreover, in the assay with lymphocytes (setting [10]), the change in vivo at 6 mg/kg worked out at 105% and the Lymphocytes is given as 11.0 10^3 cells/μl. For the same compound, in assay [3] (setting [10]), the change in vivo at 6 mg/kg was found to be 109% and the “Total WBC” value is recorded as 12.3 10^3 cells/μl. In addition, the Monocytes with monocytes (setting [10]) was 0.1 10^3 cells/μl.

Values taken from US20110039879A1, “METHODS FOR INCREASING WHITE BLOOD CELLS” (FibroGen ,Inc., priority 2007, published 2011).
